Values quoted from earlier work in EP0606683B1, “Means for diagnosis of angiogenic diseases” (INSTITUT FÜR DIAGNOSTIKFORSCHUNG GmbH AN DER FREIEN …, priority 1993, dated 2003).

Experiments:
[1] = test system: humanen atheromatösen Koronararterien; settings: in vitro incubation; Dashwood et al., 1991
[2] = test system: deendothelisierten Bereichen der Aorta; settings: rabbit, abdominal aorta de-endothelialised by balloon catheter; Kurata et al. 1992

## ^125I-Endothelin 1: ^125I-labelled Endothelin 1, ein Polypeptid aus 21 Aminosäuren; used in cited literature studies
[1]
  Bindung von ^125I-Endothelin 1 im Bereich der Tunica media sowie in Bereichen der Vasa vasora: vermehrte Bindung
[2]
  Aufnahme von ^125I-Endothelin 1 in den deendothelisierten Bereichen der Aorta: vermehrte Aufnahme
